Results: ChEMBL document CHEMBL1201862, “PubChem BioAssay data set” (2004)
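Following 48 hours of exposure in 96-well plates, responses at five concentrations were used to interpolate endpoints linearly. GI50 = concentration required for 50% inhibition of growth.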 Activity calls are given as the source filed them. Cut-off read from the data, not from the text of the source: active = GI50 up to about 1.1 µM and inactive = higher.

Key:
Test in all cases: inhibition of tumour cell growth, NCI panel, 48 h
786-0 = system: 786-0
A549 = system: A549
ACHN = system: ACHN
BT-549 = system: BT-549
CAKI-1 = system: CAKI-1
CCRF-CEM = system: CCRF-CEM
COLO 205 = system: COLO 205
DU-145 = system: DU-145
EKVX = system: EKVX
HCC 2998 = system: HCC 2998
HCT-116 = system: HCT-116
HCT-15 = system: HCT-15
HL-60 = system: HL-60
HOP-62 = system: HOP-62
HOP-92 = system: HOP-92
HT-29 = system: HT-29
Hs-578T = system: Hs-578T
IGROV-1 = system: IGROV-1
K562 = system: K562
KM12 = system: KM12
LOX IMVI = system: LOX IMVI
M14 = system: M14
MCF7 = system: MCF7
MDA-MB-231 = system: MDA-MB-231
MDA-MB-435 = system: MDA-MB-435
MOLT-4 = system: MOLT-4
Malme-3M = system: Malme-3M
NCI-H226 = system: NCI-H226
NCI-H23 = system: NCI-H23
NCI-H460 = system: NCI-H460
NCI-H522 = system: NCI-H522
NCI/ADR-RES = system: NCI/ADR-RES
OVCAR-3 = system: OVCAR-3
OVCAR-4 = system: OVCAR-4
OVCAR-5 = system: OVCAR-5
OVCAR-8 = system: OVCAR-8
PC-3 = system: PC-3
RPMI-8226 = system: RPMI-8226
RXF 393 = system: RXF 393
SF-268 = system: SF-268
SF-295 = system: SF-295
SF-539 = system: SF-539
SK-MEL-28 = system: SK-MEL-28
SK-MEL-2 = system: SK-MEL-2
SK-MEL-5 = system: SK-MEL-5
SN12C = system: SN12C
SNB-19 = system: SNB-19
SNB-75 = system: SNB-75
SR = system: SR
SW-620 = system: SW-620
TK-10 = system: TK-10
U-251 = system: U-251
UACC-257 = system: UACC-257
UACC-62 = system: UACC-62
UO-31 = system: UO-31
A498 = system: A498
SK-OV-3 = system: SK-OV-3
T47D = system: T47D

In the case of O=C(c1ccc(Cl)cc1)C(O)c1ccc(Cl)cc1 (configuration not stated), the GI50 (786-0) is reported as > 100 µM (inactive), the GI50 (A549) is reported as 59.7 µM (inactive) and the GI50 (ACHN) is reported as > 100 µM (inactive). The GI50 (BT-549) was 53.8 µM (inactive), the GI50 (CAKI-1) was > 100 µM (inactive) and the GI50 (CCRF-CEM) was > 100 µM (inactive). For the same molecule, the GI50 (COLO 205) was > 100 µM (inactive), the GI50 (DU-145) was 92 µM (inactive) and the GI50 (EKVX) was 34.2 µM (inactive). The GI50 (HCC 2998) was > 100 µM (inactive), the GI50 (HCT-116) was > 100 µM (inactive) and the GI50 (HCT-15) was greater than 100 µM. The GI50 (HL-60) was 32.5 µM (inactive), the GI50 (HOP-62) was > 100 µM (inactive) and the GI50 (HOP-92) was 30.8 µM (inactive). For the same molecule, the GI50 (HT-29) was > 100 µM (inactive), the GI50 (Hs-578T) was 45.3 µM (inactive) and the GI50 (IGROV-1) was 85.3 µM (inactive). The GI50 (K562) was 30.8 µM (inactive), the GI50 (KM12) was 41.6 µM (inactive) and the GI50 (LOX IMVI) was > 100 µM (inactive). The GI50 (M14) was > 100 µM (inactive), the GI50 (MCF7) was 75.7 µM (inactive) and the GI50 (MDA-MB-231) was > 100 µM (inactive). For the same molecule, the GI50 (MDA-MB-435) was > 100 µM (inactive), the GI50 (MOLT-4) was 24.8 µM (inactive) and the GI50 (Malme-3M) was 40.3 µM (inactive). For the same molecule, the GI50 (NCI-H226) was > 100 µM (inactive), the GI50 (NCI-H23) was 70.3 µM (inactive) and the GI50 (NCI-H460) was > 100 µM (inactive). For the same molecule, the GI50 (NCI-H522) was 42 µM (inactive), the GI50 (NCI/ADR-RES) was > 100 µM (inactive) and the GI50 (OVCAR-3) was 43.8 µM (inactive). The GI50 (OVCAR-4) was 86.3 µM (inactive), the GI50 (OVCAR-5) was > 100 µM (inactive) and the GI50 (OVCAR-8) was 63.2 µM (inactive). The GI50 (PC-3) was 46.6 µM (inactive), the GI50 (RPMI-8226) was 60.4 µM (inactive) and the GI50 (RXF 393) was > 100 µM (inactive). The GI50 (SF-268) was > 100 µM (inactive), the GI50 (SF-295) was > 100 µM (inactive) and the GI50 (SF-539) was 65.5 µM (inactive). The GI50 (SK-MEL-28) was > 100 µM (inactive), the GI50 (SK-MEL-2) was > 100 µM (inactive) and the GI50 (SK-MEL-5) was 30.9 µM (inactive). The GI50 (SN12C) was > 100 µM (inactive), the GI50 (SNB-19) was > 100 µM (inactive) and the GI50 (SNB-75) was > 100 µM (inactive). For the same molecule, the GI50 (SR) was 25.4 µM (inactive), the GI50 (SW-620) was > 100 µM (inactive) and the GI50 (TK-10) was 63.4 µM (inactive). For the same molecule, the GI50 (U-251) was > 100 µM (inactive), the GI50 (UACC-257) was 52.8 µM (inactive) and the GI50 (UACC-62) was 42 µM (inactive). For the same molecule, the GI50 (UO-31) was > 100 µM (inactive).
For COc1cc(C2c3[nH]c4ccc(F)cc4c3C[C@H]3COC(=O)N23)cc(OC)c1O (some centres not stated), the GI50 (786-0) was 11.6 µM (inactive), the GI50 (A498) was 6.71 µM (inactive) and the GI50 (A549) was 6.65 µM (inactive). For the same molecule, the GI50 (ACHN) was 5.79 µM (inactive), the GI50 (BT-549) was 43.2 µM (inactive) and the GI50 (CAKI-1) was 11 µM (inactive). For the same molecule, the GI50 (CCRF-CEM) was 6.89 µM (inactive), the GI50 (COLO 205) was 4.18 µM (inactive) and the GI50 (DU-145) was 15.9 µM (inactive). For the same molecule, the GI50 (EKVX) was 24 µM (inactive), the GI50 (HCC 2998) was 14.1 µM (inactive) and the GI50 (HCT-116) was 5.78 µM (inactive). The GI50 (HCT-15) was 8.69 µM, the GI50 (HL-60) was 7.71 µM (inactive) and the GI50 (HOP-62) was 5.71 µM (inactive). The GI50 (HOP-92) was 15.8 µM (inactive), the GI50 (HT-29) was 7.55 µM (inactive) and the GI50 (Hs-578T) was 2.85 µM (inactive). For the same molecule, the GI50 (IGROV-1) was 13.2 µM (inactive), the GI50 (K562) was 14.8 µM (inactive) and the GI50 (KM12) was 12.3 µM (inactive). The GI50 (LOX IMVI) was 5.43 µM (inactive), the GI50 (M14) was 17 µM (inactive) and the GI50 (MCF7) was 3.33 µM (inactive). For the same molecule, the GI50 (MDA-MB-231) was 22.1 µM (inactive), the GI50 (MOLT-4) was 3.73 µM (inactive) and the GI50 (Malme-3M) was 14.7 µM (inactive). For the same molecule, the GI50 (NCI-H226) was 10.4 µM (inactive), the GI50 (NCI-H23) was 4.11 µM (inactive) and the GI50 (NCI-H460) was 4.36 µM (inactive). For the same molecule, the GI50 (NCI-H522) was 15 µM (inactive), the GI50 (NCI/ADR-RES) was 4.93 µM (inactive) and the GI50 (OVCAR-3) was 13.4 µM (inactive). The GI50 (OVCAR-4) was 16.2 µM (inactive), the GI50 (OVCAR-5) was 18.8 µM (inactive) and the GI50 (OVCAR-8) was 10.1 µM (inactive). The GI50 (PC-3) was 9.16 µM (inactive), the GI50 (RPMI-8226) was 96.6 µM (inactive) and the GI50 (RXF 393) was 3.29 µM (inactive). The GI50 (SF-268) was 11.5 µM (inactive), the GI50 (SF-295) was 12.1 µM (inactive) and the GI50 (SF-539) was 2.93 µM (inactive). The GI50 (SK-MEL-28) was 7.96 µM (inactive), the GI50 (SK-MEL-2) was 26.2 µM (inactive) and the GI50 (SK-MEL-5) was 10.7 µM (inactive). The GI50 (SK-OV-3) was 15.5 µM (inactive), the GI50 (SN12C) was 13.5 µM (inactive) and the GI50 (SNB-19) was 21.3 µM (inactive). For the same molecule, the GI50 (SNB-75) was 2.29 µM (inactive), the GI50 (SR) was 0.47 µM (active) and the GI50 (SW-620) was 9.46 µM (inactive). The GI50 (T47D) was 32.5 µM (inactive), the GI50 (TK-10) was > 10 µM (inactive) and the GI50 (U-251) was 6.47 µM (inactive). For the same molecule, the GI50 (UACC-257) was 11.1 µM (inactive), the GI50 (UACC-62) was 12.1 µM (inactive) and the GI50 (UO-31) was 12.6 µM (inactive).
